Results published in article PMC11550483 (2024).
Read-outs that look alike come from different tables or passages of the source. Where a SMILES comes first, the peptide text is derived from it.

How the values were obtained:
[1] = target: HCoV-NL63 M^pro (Human coronavirus NL63, UniProt P0C6X5); assay type: cell-based; settings: read-out: EC50 NL63 M^pro inhibition, cellular gain-of-signal
[2] = test system: SARS2 M^pro; settings: cited from earlier work
[3] = test system: SARS2 replication; settings: read-out: EC50 against SARS2 replication; cited from earlier work
[4] = test system: 293T cells; settings: up to the highest tested concentration (100 μM)

HCoV-NL63 M^pro, sequence (P0C6X5 2940-3242): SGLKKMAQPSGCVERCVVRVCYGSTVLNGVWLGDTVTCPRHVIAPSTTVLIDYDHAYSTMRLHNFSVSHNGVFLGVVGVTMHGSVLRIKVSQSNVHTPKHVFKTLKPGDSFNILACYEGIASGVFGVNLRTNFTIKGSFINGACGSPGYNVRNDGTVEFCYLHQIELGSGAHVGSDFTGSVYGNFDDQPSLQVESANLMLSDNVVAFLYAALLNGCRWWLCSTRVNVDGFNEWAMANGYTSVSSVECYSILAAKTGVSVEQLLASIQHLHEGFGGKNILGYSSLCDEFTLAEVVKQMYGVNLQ

Compound `CC(C)C[C@H](NC(=O)OCc1ccccc1)C(=O)N[C@@H](CC1CCNC1=O)C(O)S(=O)(=O)O` (some centres unmarked) [GC376] has an EC50 [1] of 770 nM.
In the case of `O=C(NCc1cccs1)C1CN(C(=O)c2cccnc2)CCN1c1ccc(Cl)c(Cl)c1` (centres unmarked) [GC-14, reference compound], the IC50 ([2]; read-out: IC50 in a similar biochemical assay, ref [60]–[61]) is given as 400 nM and the EC50 [3] is given as 1100 nM.
For `CSCCC(C=O)NC(=O)C(CC(C)C)NC(=O)C(CC(C)C)NC(C)=O` (stereo not drawn) [MWAC-0001889, CSCCC(NC(=O)C(CC(C)C)NC(=O)C(CC(C)C)NC(=O)C)C=O] (Ac-Leu-Leu-Met-aldehyde; configuration not given here), the “toxicity in 293T cells” value [4] is given as “no toxicity” and the IC50 ([2]; read-out: IC50 SARS2 M^pro in a biochemical assay, ref [29],[32],[39],[58],[59]) is given as 970 nM.
